Earlier results in patent US9682051B2, “Acyclovir and meloxicam combination therapy for functional somatic syndromes” (INNOVATIVE MED CONCEPTS, LLC, priority 2012, dated 2017).

System: fibromyalgia patients
Settings: valacyclovir alone

For `CC(C)[C@H](N)C(=O)OCCOCn1cnc2c(=O)[nH]c(N)nc21` [valacyclovir], the “Outcome of treating fibromyalgia patients” value is given as “not successful”.
